Results taken from patent US20240050727A1, “DEVICES FOR FORMING IN SITU MICRONEEDLES AND METHODS THEREOF” (University of Connecticut, priority 2022, published 2024).
“Also recorded” adds a separate entry of the source.

Tested on: C. albicans
Test: Antifungal activity in 3D culture model (C. albicans 3D fungal biofilms in CHROMagar)
Assay type: cell-based
Conditions: for superficial regrowth of preformed fungal biofilm: t=48 h preformed biofilm, monitored for 48 hr
Experimental: Antifungal activity. The antifungal activity was performed using an in-lab developed 3D culture model. C. Albicans was seeded at a density of 10^7 cells/mL and cultured for 48 h on CHROMagar. The 3D culture gels were treated with PBS and Caspofungin either topically or using the in-situ microneedle device and methodology. Samples were cut for in-depth imaging after 48 h of treatment and fungal inhibition was evaluated. Experiments were performed to assess the feasibility of the disclosed device in the treatment of infection. 10^6 cells/ml of C. albicans were inoculated in liquid CHROMagar™ and allowed to form 3D fungal biofilms. PBS or 32 μg/ml of Caspofungin (CPF) was applied topically and via a microneedling device immediately after the agar solidified (t=0 h) or 48 h after biofilm growth (t=48 h). The growth and distribution of C. albicans was monitored for 48 hr.

Compound: CC[C@H](C)C[C@H](C)CCCCCCCCC(=O)N[C@H]1C[C@@H](O)[C@@H](NCCN)NC(=O)[C@@H]2[C@@H](O)CCN2C(=O)[C@H]([C@H](O)CCN)NC(=O)[C@H]([C@H](O)[C@@H](O)c2ccc(O)cc2)NC(=O)[C@@H]2C[C@@H](O)CN2C(=O)[C@H]([C@@H](C)O)NC1=O [CPF, Caspofungin]
- 3D growth of fungal biofilm (fluorescence images of slices) (32 μg/ml CPF administered by drop): reduced the 3D growth
- 3D growth of fungal biofilm (fluorescence images of slices) (32 μg/ml CPF administered by microneedle system): reduced the 3D growth
- superficial regrowth of preformed fungal biofilm (32 μg/ml CPF applied topically via drop): not able to regrow on the surface; also recorded: prevention of superficial growth
- superficial regrowth of preformed fungal biofilm (32 μg/ml CPF applied via microneedle system): not able to regrow on the surface; also recorded: prevention of superficial growth
- fungal biofilm 3D growth at t=48 h (32 μg/ml CPF, microneedling system vs drop, applied 48 h after biofilm growth): effective in reducing the fungal biofilm growth only when administered via the microneedling system; also recorded: reduced only when CPF was administered via microneedles
- overall biofilm thickness and biofilm growth at depth (calcofluor fluorescence signal) (CPF, microneedle delivery): reduces the overall biofilm thickness and biofilm growth at depths lower than 1 mm
